Values of other authors as cited in patent US20220401207A1, “DEVICES, SYSTEMS, AND METHODS FOR TREATMENT OF DUCT OCCLUSION” (Purdue Research Foundation, priority 2021, published 2022).

How the values were obtained:
cancerous mass = conditions: drug-eluting stent, drug comprises gemcitabine
[1] = system: bacteria isolated from bile; conditions: number of bile cultures, N-acetyl-cysteine n = 12, co-trimoxazole n = 10
gall bladder = conditions: opossums, CCK infused into the body

Compound | Bile samples cultured with Clostridium species [1] | Bile samples cultured with Enterobacter species [1] | Bile samples cultured with Enterococcus species [1] | Bile samples cultured with K. oxytoca [1] | Bile samples cultured with K. pneumonia [1] | Bile samples cultured with Klebsiella species [1] | also measured
Nc1ccn([C@@H]2O[C@H](CO)[C@@H](O)C2(F)F)c(=O)n1 [gemcitabine] | – | – | – | – | – | – | Life span of subjects (cancerous mass): increased life spans; Tumor size (cancerous mass): decreased tumor size
Co-trimoxazole | 2 | 2 | 6 | 1 | 4 | 5 | Bile samples cultured with Bacteroides fragilis [1]: 1; Bile samples cultured with Candida species [1]: 2; Bile samples cultured with Pseudomonas aeruginosa [1]: 1; Bile samples cultured with Staphylococcus epidermidis [1]: 1
cholecystokinin [CCK] | – | – | – | – | – | – | Compliance (and thus the pressure) of the gall bladder (gall bladder): drops
CC(=O)N[C@@H](CS)C(=O)O [N-acetyl-cysteine] | 5 | 6 | 10 | 5 | 3 | 8 | Bile samples cultured with Citrobacter freundii [1]: 1; Bile samples cultured with Proteus species [1]: 1; Bile samples cultured with Escherichia coli ([1]; **p < 0.05): 6; Bile samples cultured with Streptococcus species ([1]; **p < 0.05): 4
